Results on 16 compounds are retold here after US20260042762A1 (Kymera Therapeutics, Inc., priority 2018, published 2026).

Each structure is given as a SMILES string.

This assay deals with T1, MerTK (Homo sapiens, UniProt Q12866).
T1 construct: endogenous in cells; host or cells: Jurkat cells
T1 sequence (Q12866 21-999): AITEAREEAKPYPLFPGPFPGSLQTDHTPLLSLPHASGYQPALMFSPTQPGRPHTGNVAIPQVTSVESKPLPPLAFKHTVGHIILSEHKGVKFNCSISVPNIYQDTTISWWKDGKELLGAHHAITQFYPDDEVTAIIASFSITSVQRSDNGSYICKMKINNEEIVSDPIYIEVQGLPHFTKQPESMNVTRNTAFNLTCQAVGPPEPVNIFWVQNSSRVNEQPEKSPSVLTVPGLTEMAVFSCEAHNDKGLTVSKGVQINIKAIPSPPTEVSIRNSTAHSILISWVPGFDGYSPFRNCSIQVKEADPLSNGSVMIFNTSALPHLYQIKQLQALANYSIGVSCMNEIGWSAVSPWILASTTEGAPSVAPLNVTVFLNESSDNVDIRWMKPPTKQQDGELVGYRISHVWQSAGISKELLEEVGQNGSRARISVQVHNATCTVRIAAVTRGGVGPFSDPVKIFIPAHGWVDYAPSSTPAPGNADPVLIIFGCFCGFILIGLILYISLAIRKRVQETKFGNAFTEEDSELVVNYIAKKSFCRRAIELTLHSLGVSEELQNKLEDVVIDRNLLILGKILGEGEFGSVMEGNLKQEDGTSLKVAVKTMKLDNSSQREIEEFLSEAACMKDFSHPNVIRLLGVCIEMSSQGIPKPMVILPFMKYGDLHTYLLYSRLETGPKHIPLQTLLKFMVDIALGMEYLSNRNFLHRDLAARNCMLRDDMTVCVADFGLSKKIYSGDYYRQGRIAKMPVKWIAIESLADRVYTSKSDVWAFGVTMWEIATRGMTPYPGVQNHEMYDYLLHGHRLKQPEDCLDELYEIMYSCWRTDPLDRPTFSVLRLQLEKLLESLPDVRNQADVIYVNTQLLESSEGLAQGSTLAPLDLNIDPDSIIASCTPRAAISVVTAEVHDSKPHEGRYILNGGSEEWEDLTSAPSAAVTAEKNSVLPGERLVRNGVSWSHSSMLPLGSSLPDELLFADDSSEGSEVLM
Put plainly: MerTk degradation in Jurkat cells (Western blot). Format: cell-based. The conditions noted are these: 0.001-1 μM, 4 hour-incubation at 37° C.; for Dmax: Jurkat, 4 h, read-out: Jurkat Max % MerTK Degradation. The procedure, abridged:
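Jurkat cells treated 4 h at 37 °C with compound at 0.001-1 μM final. RIPA lysates quantified by BCA, then MerTK probed by Western blot against actin loading control with IR-dye secondaries and Odyssey imaging.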

Take `Cn1c(=O)n([C@H]2CCC(=O)NC2=O)c2ccc(CCCOCCCOCCN3CCN(Cc4ccc(-c5cn([C@H]6CC[C@H](O)CC6)c6nc(NCCC7CC7)ncc56)cc4)CC3)cc21` [I-70, 3-(5-[3-[3-(2-[4-[(4-[2-[(2-cyclopropylethyl)amino]-7-[trans-4-hydroxycyclohexyl]-7H-pyrrolo[2,3-d]pyrimidin-5-yl]phenyl)methyl]piperazin-1-yl]ethoxy)propoxy]propy1]-3-methyl-2-oxo-2,3-dihydro-1H-1,3-benzodiazol-1-y1)piperidine-2,6-dione]: the Dmax is over 50%. In the case of `Cn1c(=O)n([C@H]2CCC(=O)NC2=O)c2ccc(CCCCN3CCC(N4CCN(Cc5ccc(-c6cn([C@H]7CC[C@H](O)CC7)c7nc(NCCC(F)(F)F)ncc67)cc5)CC4)CC3)cc21` [I-120, 3-[3-methyl-2-oxo-5-[4-(4-[4-[(4-[7-[trans-4-hydroxycyclohexyl]-2-[(3,3,3-trifluoropropyl)amino]-7H-pyrrolo[2,3-d]pyrimidin-5-yl]phenyl)methyl]piperazin-1-yl]piperidin-1-yl)butyl]-2,3-dihydro-1H-1,3-benzodiazol-1-yl]piperidine-2,6-dione], the Dmax is over 50%. The same measure, in the same setting: to `C[C@@H](CC(F)(F)F)Nc1ncc2c(-c3ccc(CN4CCN(CCCOCCCc5ccc6c(c5)n(C)c(=O)n6C5CCC(=O)NC5=O)CC4)cc3)cn([C@H]3CC[C@H](O)CC3)c2n1` (stereo partly drawn) [I-110, 3-[3-methyl-2-oxo-5-[3-(3-[4-[(4-[7-[(1r,4r)-4-hydroxycyclohexyl]-2-[[(2S)-4,4,4-trifluorobutan-2-yl]amino]-7H-pyrrolo[2,3-d]pyrimidin-5-yl]phenyl)methyl]piperazin-1-yl]propoxy)propyl]-2,3-dihydro-1H-1,3-benzodiazol-1-y1]piperidine-2,6-dione] belongs over 50%; to `C[C@H](CC(F)(F)F)Nc1ncc2c(-c3ccc(CN4CCN(CCCOCCCc5ccc6c(c5)n(C)c(=O)n6C5CCC(=O)N(C)C5=O)CC4)cc3)cn([C@H]3CC[C@H](O)CC3)c2n1` (stereo partly drawn) [I-224, 1-methyl-3-[3-methyl-2-oxo-5-[3-(3-[4-[(4-[7-[trans-4-hydroxycyclohexy1]-2-[[(2R)-4,4,4-trifluorobutan-2-yl]amino]pyrrolo[2,3-d]pyrimidin-5-yl]phenyl)methyl]piperazin-1-yl]propoxy)propyl]-1,3-benzodiazol-1-yl]piperidine-2,6-dione], under 20%.

For `CN1CCN(Cc2ccc(-c3ccc(CO[C@H]4CCC[C@@H]4NC(=O)c4cc(-c5cnn(CCOCCOCCCc6cccc7c6n(C)c(=O)n7C6CCC(=O)NC6=O)c5)cnc4N)cc3)cc2)CC1` (stereo partly drawn) [I-184, 2-Amino-5-[1-[2-(2-[3-[1-(2,6-dioxopiperidin-3-yl)-3-methyl-2-oxo-1,3-benzodiazol-4-yl]propoxy]ethoxy)ethyl]pyrazol-4-yl]-N-[(1S,2S)-2-([4-[(4-methylpiperazin-1-yl)methyl]-[1,1-biphenyl]-4-yl]methoxy)cyclopentyl]pyridine-3-carboxamide], the Dmax fell in the range of 20 to 50%. Regarding `CCC[C@@H](C)Nc1ncc2c(-c3ccc(CN4CCN(CCCO[C@H]5CCN(Cc6ccc7c(c6)n(C)c(=O)n7C6CCC(=O)NC6=O)C5)CC4)cc3)cn([C@H]3CC[C@H](O)CC3)c2n1` (stereo partly shown) [I-176], the Dmax is over 50%. As to `CCCCNc1ncc2c(-c3ccc(CN4CCN(CCOCCOCCCc5ccc6c(c5)n(C)c(=O)n6[C@H]5CCC(=O)NC5=O)CC4)cc3)cn([C@H]3CC[C@H](O)CC3)c2n1` [I-42, 3-[5-[3-(2-[2-[4-([4-[2-(butylamino)-7-[trans-4-hydroxycyclohexyl]-7H-pyrrolo[2,3-d]pyrimidin-5-yl]phenyl]methyl)piperazin-1-yl]ethoxy]ethoxy)propyl]-3-methyl-2-oxo-2,3-dihydro-1H-1,3-benzodiazol-1-yl]piperidine-2,6-dione; formic acid], the Dmax is over 50%. For `Cn1c(=O)n([C@H]2CCC(=O)NC2=O)c2ccc(CCCOCCOCCC3CCN(C[C@H]4CC[C@H](c5cn([C@H]6CC[C@H](O)CC6)c6nc(NCCC(F)(F)F)ncc65)CC4)CC3)cc21` [I-164, 3-[3-methyl-2-oxo-5-(3-[2-[2-(1-[[trans-4-[7-[trans-4-hydroxycyclohexyl]-2-[(3,3,3-trifluoropropyl)amino]pyrrolo[2,3-d]pyrimidin-5-yl]cyclohexyl]methyl]piperidin-4-yl)ethoxy]ethoxy]propyl)-1,3-benzodiazol-1-y1]piperidine-2,6-dione], the Dmax is over 50%. For the compound `C[C@H](CC(F)(F)F)Nc1ncc2c(-c3ccc(CN4CCN(CCCO[C@H]5CCN(Cc6ccc7c(c6)n(C)c(=O)n7C6CCC(=O)NC6=O)C5)CC4)cc3)cn([C@H]3CC[C@H](O)CC3)c2n1` (stereo partly shown) [I-198], the “Jurkat Max % MerTK Degradation” value is listed as “A (maximum MerTK degradation greater than 50%)”.

On to `Cn1c(=O)n([C@H]2CCC(=O)NC2=O)c2ccc(CCOCCN3CCN(Cc4cn([C@H]5CC[C@H](O)CC5)c5nc(NCCC(F)(F)F)ncc45)CC3)cc21` [I-147, 3-[3-methyl-2-oxo-5-(2-[2-[4-([7-[(1r,4r)-4-hydroxycyclohexyl]-2-[(3,3,3-trifluoropropyl)amino]pyrrolo[2,3-d]pyrimidin-5-y1]methyl)piperazin-1-yl]ethoxy]ethyl)-1,3-benzodiazol-1-yl]piperidine-2,6-dione], for which the Dmax was under 20%. Take `CCC[C@@H](C)Nc1ncc2c(n1)n([C@H]1CC[C@H](O)CC1)cc2[C@H]1CC[C@H](CN2CCN(CCCO[C@H]3CCN(Cc4ccc5c(c4)n(C)c(=O)n5C4CCC(=O)NC4=O)C3)CC2)CC1` (stereo partly drawn) [I-221, trans-3-(3-methyl-2-oxo-5-[[(3R)-3-[3-(4-[[(1r,4r)-4-[2-[(2S)-pentan-2-ylamino]-7-[4-hydroxycyclohexyl]pyrrolo[2,3-d]pyrimidin-5-yl]cyclohexyl]methyl]piperazin-1-y1)propoxy]pyrrolidin-1-yl]methyl]-1,3-benzodiazol-1-yl)piperidine-2,6-dione]: the Dmax is 20 to 50%.

For the compound `Cn1c(=O)n([C@H]2CCC(=O)NC2=O)c2ccc(Cn3cc(CN4CCN(Cc5ccc(-c6cn([C@H]7CC[C@H](O)CC7)c7nc(NCCC(F)(F)F)ncc67)cc5)CC4)nn3)cc21` [I-113, 3-(3-Methyl-2-oxo-5-[[4-([4-[(4-[7-[trans-4-hydroxycyclohexyl]-2-[(3,3,3-trifluoropropyl)amino]-7H-pyrrolo[2,3-d]pyrimidin-5-yl]phenyl)methyl]piperazin-1-yl]methyl)-1H-1,2,3-triazol-1-yl]methyl]-2,3-dihydro-1H-1,3-benzodiazol-1-yl)piperidine-2,6-dione], the Dmax is over 50%. On the same count and under the same terms, to `CCCCNc1ncc2c(-c3ccc([C@H](C)N4CCN(CCCOCCCc5ccc6c(c5)n(C)c(=O)n6C5CCC(=O)NC5=O)CC4)cc3)cn([C@H]3CC[C@H](O)CC3)c2n1` (stereo partly drawn) [I-104, 3-[5-[3-(3-[4-[(1S)-1-[4-[2-(butylamino)-7-[trans-4-hydroxycyclohexyl]-7H-pyrrolo[2,3-d]pyrimidin-5-yl]phenyl]ethyl]piperazin-1-yl]propoxy)propyl]-3-methyl-2-oxo-2,3-dihydro-1H-1,3-benzodiazol-1-y1]piperidine-2,6-dione] belongs over 50%. Same read-out and setting: to `CCCCNc1ncc2c(-c3ccc(CN4CCN(CCCOCCCc5ccc6c(c5)n(C)c(=O)n6[C@H]5CCC(=O)NC5=O)CC4)cc3)cn(C3CCCCC3)c2n1` [I-74, 3-[5-(3-[3-[4-([4-[2-(butylamino)-7-cyclohexyl-7H-pyrrolo[2,3-d]pyrimidin-5-yl]phenyl]methyl)piperazin-1-yl]propoxy]propyl)-3-methyl-2-oxo-2,3-dihydro-1H-1,3-benzodiazol-1-yl]piperidine-2,6-dione] belongs over 50%.

For `COc1cc(Nc2nc(N[C@H]3CCCC[C@H]3N)n3ccnc3c2C(N)=O)cc(OCCOCCOCCOCCNc2cccc3c2C(=O)N(C2CCC(=O)NC2=O)C3=O)c1` (stereo partly shown) [I-232], the Dmax was under 20%.

On to `Cc1ncsc1-c1ccc(CNC(=O)[C@@H]2C[C@@H](O)CN2C(=O)[C@@H](NC(=O)C2(F)CC2)C(C)(C)C)c(OCCOCCOCCN2CCN(Cc3ccc(-c4cn([C@H]5CC[C@H](O)CC5)c5nc(NCCC(F)(F)F)ncc45)cc3)CC2)c1` [I-214, (2S,4R)-1-[(2S)-2-[(1-fluorocyclopropyl)formamido]-3,3-dimethylbutanoyl]-4-hydroxy-N-[[4-(4-methyl-1,3-thiazol-5-yl)-2-[2-[2-(2-[4-[(4-[7-[trans-4-hydroxycyclohexyl]-2-[(3,3,3-trifluoropropyl)amino]pyrrolo[2,3-d]pyrimidin-5-yl]phenyl)methyl]piperazin-1-yl]ethoxy)ethoxy]ethoxy]phenyl]methyl]pyrrolidine-2-carboxamide], for which the Dmax was over 50%.
